“Also recorded” adds a separate entry of the source.
Assays:
ICR-DIO male mice = assay: Glucose and insulin regulation in DIO mice (fasting glucose, OGTT, ITT); type: in vivo
Source text: Analogously to example 2.7, diabetes was induced by a high-fructose high-fat diet (HFD) for 4 months in DIO mice. The mice developed increased fasting glucose and insulin resistance. Control group animals received a normal rodent diet (regular diet). Weight loss was then induced during a 30 days test period. In a first stage, the animals were fed normal rodent diet for 16 days. Then in a second stage the animals received a low-calory diet for 14 days. Two days after start of the first stage, the diet was supplemented with MyoMed-203 (at 1 g compound/1 kg food).
Test design: ICR-DIO male mice were randomly assigned to groups of 8-10 animals each. Three control groups were included: Control group of mice without obesity (control; regular diet (RD); n=10), obese mice fed with high-fructose high-fat diet during the entire study period (DIO HFD; n=8); and obese mice with initiated weight loss (DIO control; n=8).
Determining the level of blood glucose was performed after 6-hour fasting. An On Call Plus glucometer (Acon Laboratories, Inc., USA) and specific test strips (REF G133-111) were used for determination of glucose levels. Blood was obtained from the tail vein by incision of the tail tip. 5-6 μl of blood were used for each assay.
For oral glucose tolerance test (OGTT), mice were orally treated with glucose at dose of 2 g/kg at the dose volume of 10 ml/kg after a 6-hour fasting. Glucose measurements were performed immediately before treatment and at 15, 30, 60 and 120 min after glucose administration. The AUC describing the rate of blood glucose output in each mouse during the test was calculated using the formula: […]
For insulin tolerance test (ITT), mice were injected intraperitoneally with recombinant human insulin solution (Lilly, France; REF C620001K) at the dose of 0.75 or 0.60 IU/[…] of body weight in the volume of 5 ml/kg after 6-hour fasting. Glucose measurements were performed immediately before treatment and at 15, 30, 60 and 120 min after insulin administration. The results of the rate of blood glucose output were expressed as area under the curve (AUC).

[1] = system: monocrotaline (MCT)-treated C57BL/6 mice; assay: Pulmonary hypertension mouse model, test series 2; type: in vivo; conditions: MCT+compound (0.1 weight-% in chow) vs MCT, 8 weeks
Procedure: The test series 2 were performed analogous to test series 1. Briefly, Three groups of mice were included in this study: 1) saline-treated mice (sham; n=10); 2) monocrotaline (MCT)-treated mice fed with normal chow (MCT; n=10); and 3) MCT-treated mice fed with MuRF1 inhibitor chow (MCT+compound; n=10 for each compound). 8 weeks old C57BL/6 mice were subcutaneously injected weekly with either MCT (600 mg/kg) or a matched volume of saline for 8 weeks. The MCT+compound group started receiving the inhibitor chow 1 week prior to the MCT injections, whereas the sham and MCT groups were fed an identical chow but without the addition of the selected compound. The compound concentration in the chow was 0.1 weight-%, resulting in a daily compound intake per mouse of about 3 mg. Body weight was recorded every week for each mouse. Mice were sacrificed after 8 weeks treatment. At sacrifice, examination and tissue analysis were performed as described in test series 1.

MuRF1 E3 ligase activity = MuRF1 E3 ligase activity (Homo sapiens, UniProt Q969Q1); assay: Inhibition of MuRF1 E3 ligase activity (ubiquitination, Western blot); type: biochemical; conditions: 20-100 μmol/L compound, 1 h at 37° C., based on ubiquitination patterns
Procedure: Compounds were then assessed for effects on MuRF1 E3 ligase activity directed to titin or to MuRF1 itself (self-ubiquitination) by mixing 75 nmol/L UBE1 (Boston Biochem), 1 μmol/L UbcH5c (Boston Biochem), 100 μmol/L Ubiquitin, 4 mmol/L ATP, 100 nmol/L Titin A168-170 with 20-100 μmol/L of respective compounds. Reactions were started by addition of 220 nmol/L MuRF1, followed by 1 h at 37° C., SDS PAGE and Western blot analysis with MuRF1 and titin specific antibodies. All reactions also included 5% DMSO.

Chain of MuRF1 E3 ligase activity (Q969Q1 whole entry): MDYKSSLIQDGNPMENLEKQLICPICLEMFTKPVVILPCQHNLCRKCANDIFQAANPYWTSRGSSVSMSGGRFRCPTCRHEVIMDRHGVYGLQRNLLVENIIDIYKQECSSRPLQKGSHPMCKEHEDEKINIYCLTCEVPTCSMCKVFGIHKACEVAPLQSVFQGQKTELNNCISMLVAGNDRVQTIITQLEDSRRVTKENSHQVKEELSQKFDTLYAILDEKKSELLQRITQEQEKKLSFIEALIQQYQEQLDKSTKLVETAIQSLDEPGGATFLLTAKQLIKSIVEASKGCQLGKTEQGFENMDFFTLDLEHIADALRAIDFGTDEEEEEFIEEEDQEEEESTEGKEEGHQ

SMILES: Cc1cc(=O)oc2cc(OCc3ccc(C(=O)OCC(=O)NC(=O)NCc4ccccn4)cc3)ccc12 [MyoMed-203, [2-oxo-2-(2-pyridylmethylcarbamoylamino)ethyl] 4-[(4-methyl-2-oxo-chromen-7-yl)oxymethyl]benzoate]
- blood glucose level after 6-hour fasting (ICR-DIO male mice; 1 g compound/1 kg food, vs DIO control, throughout the treatment period): significantly lower
- hypoglycemic effect according to OGTT (ICR-DIO male mice; after 14 days of weight loss and treatment): mild hypoglycemic effect
- blood glucose at 30 minutes of OGTT (ICR-DIO male mice; day 14, vs DIO control): tended to be lower
- OGTT calculated area under the glucose elimination curve (ICR-DIO male mice; day 28): tended to be lower
- glucose level at 120 min of OGTT (ICR-DIO male mice; day 28, vs all control groups): significant decrease in the glucose level
- glucose level at 120 minutes after insulin injection (ITT) (ICR-DIO male mice; vs all control groups): significant decrease of glucose level
- loss of skeletal muscle mass (EDL, TA wet weight; diaphragm maximum force) [1]: most pronounced effect
- right ventricle hypertrophy [1]: attenuated; also recorded: attenuate the development of right ventricle hypertrophy

SMILES: Cc1cc(=O)oc2cc(OCc3ccc(C(=O)OC(C)C(=O)NC(N)=O)cc3)ccc12 (stereo not shown) [MyoMed-946-5, (1-methyl-2-oxo-2-ureido-ethyl) 4-[(4-methyl-2-oxo-chromen-7-yl)oxymethyl]benzoate]
- inhibition of MuRF1 E3 ligase activity (MuRF1 E3 ligase activity): significantly inhibit MuRF1 E3 ligase activity

SMILES: CNC(=O)NC(=O)C(C)OC(=O)c1ccc(COc2ccc3c(C)cc(=O)oc3c2)cc1 (stereo not shown) [MyoMed-946-8, [1-methyl-2-(methylcarbamoylamino)-2-oxo-ethyl] 4-[(4-methyl-2-oxo-chromen-7-yl)oxymethyl]benzoate]
- inhibition of MuRF1 E3 ligase activity (MuRF1 E3 ligase activity): significantly inhibit MuRF1 E3 ligase activity

Source: patent US12331042B2, “Compounds suitable for the treatment and prophylaxis of muscle wasting and other conditions” (priority 2019, dated 2025)
